Reference: US20230263822A1, “MODULATION OF FACTOR 11 EXPRESSION” (Ionis Pharmaceuticals, Inc., priority 2008, published 2023)
Strand notation (5' to 3'): a small letter for the sugar, then the base; units joined by * are phosphorothioate-linked, units joined directly phosphodiester-linked; [ ] holds rarer units or linkages, { } end groups; capitals alone tell only the bases. e = 2'-O-(2-methoxyethyl) (MOE); [5mC] = 5-methylcytosine; d = 2'-deoxy (DNA)

Tests used:
Factor 11 mRNA = Factor 11 mRNA in cynomolgus monkey liver, day 55 (Example 46); type: in vivo, cynomolgus monkeys; settings: cynomolgus monkeys, 25 mg/kg
Summary of the method: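 Male and female cynomolgus monkeys (2+2 per group) received antisense oligonucleotides sc at 25 mg/kg, three times weekly in week 1 and twice weekly in weeks 2-8. PBS-dosed animals served as control. Factor 11 mRNA in liver on day 55 was measured by real-time PCR (primer probe set LTS00301) as percent inhibition relative to PBS control.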

[1] = Liver function, ALT, AST, bilirubin in cynomolgus monkeys (Example 46); type: in vivo; settings: plasma
Summary of the method: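 Male and female cynomolgus monkeys (2+2 per group) given antisense oligonucleotides subcutaneously at 25 mg/kg, three times weekly in week 1 then twice weekly through week 8; PBS controls on the same schedule. Plasma ALT and AST measured in IU/L and bilirubin in mg/dL.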

[2] = Kidney function, BUN, urine protein to creatinine ratio in cynomolgus monkeys (Example 46); type: in vivo; settings: for Urine protein/creatinine ratio: day 49
Summary of the method: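 Male and female cynomolgus monkeys (2+2 per group) received antisense oligonucleotides at 25 mg/kg subcutaneously, three times weekly in week 1 and then twice weekly through week 8; PBS-dosed controls followed the same schedule. Urine was collected on several days, and the protein to creatinine ratio was calculated on day 49.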

[3] = Hematology assays in cynomolgus monkeys (Example 46); type: in vivo
Summary of the method: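 Two male and two female monkeys per group received antisense oligonucleotide subcutaneously at 25 mg/kg, three times weekly in week 1 then twice weekly through week 8; PBS controls dosed identically. Blood sampled pre-dose and repeatedly during dosing for PT, aPTT and hematologic factors; necropsy on day 55.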

[4] = tested on: IL-1β, IL-6, IFN-γ, TNF-α, IL-8, MIP-1α, MCP-1, MIP-1β, RANTES; assay: Cytokine and chemokine assays in cynomolgus monkeys (Example 46); type: in vivo
Summary of the method: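 Male and female monkeys, four per group, received antisense oligonucleotide s.c. at 25 mg/kg three times weekly in week 1, then twice weekly through week 8, against a PBS control. Blood was sampled 14 days pre-dose and on day 55, using primate antibodies (IL-1β, IL-6, IFN-γ, TNF-α) or cross-reacting human antibodies (others).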

[5] = Day −5 (before start of treatment)
[6] = Day −14 (before start of treatment)
[7] = day-14 (before start of treatment)

ISIS 449707: 3-8-3, 4-8-4, 2-10-2, 3-10-3 or 4-10-4 MOE microwalk gapmer (Table 46) (antisense e[5mC]*eA*e[5mC]*eA*dG*dT*dT*dT*d[5mC]*dT*dG*dG*e[5mC]*eA*eG*eG)
Factor 11 mRNA in liver vs PBS control (Factor 11 mRNA): significant reduction of Factor 11 mRNA | ALT ([1]; Day 31): 52 IU/L | AST ([1]; Day 31): 50 IU/L | Bilirubin ([1]; Day 31): 0.13 mg/dL | ALT ([1]; Day 55): 63 IU/L | AST ([1]; Day 55): 52 IU/L | Bilirubin ([1]; Day 55): 0.16 mg/dL | ALT ([1]; Day −5): 56 IU/L | AST ([1]; Day −5): 53 IU/L | Bilirubin ([1]; Day −5): 0.19 mg/dL | ALT ([1]; Day −14): 54 IU/L | AST ([1]; Day −14): 64 IU/L | Bilirubin ([1]; Day −14): 0.27 mg/dL | BUN levels ([2]; Day 31): 21 mg/dL | BUN levels ([2]; Day 55): 20 mg/dL | BUN levels [2, 5]: 21 mg/dL | BUN levels [2, 6]: 25 mg/dL | Urine protein/creatinine ratio [2]: 0.03 | HCT ([3]; Day 17): 42% | MCH ([3]; Day 17): 22.1 pg | MCHC ([3]; Day 17): 30.0 g/dL | MCV ([3]; Day 17): 74 fL | RBC count ([3]; Day 17): 5.7e+06 µL⁻¹ | WBC count ([3]; Day 17): 12000 µL⁻¹ | hemoglobin content ([3]; Day 17): 12.7 g/dL | monocytes ([3]; Day 17): 3.2% | neutrophils ([3]; Day 17): 80% | platelet count ([3]; Day 17): 408 ×100/μL | HCT ([3]; Day 31): 43% | MCH ([3]; Day 31): 22.1 pg | MCHC ([3]; Day 31): 29.8 g/dL | MCV ([3]; Day 31): 74 fL | RBC count ([3]; Day 31): 5.7e+06 µL⁻¹ | WBC count ([3]; Day 31): 11000 µL⁻¹ | hemoglobin content ([3]; Day 31): 12.7 g/dL | monocytes ([3]; Day 31): 4.2% | neutrophils ([3]; Day 31): 89% | platelet count ([3]; Day 31): 408 ×100/μL | HCT ([3]; Day 45): 43% | MCH ([3]; Day 45): 22.6 pg | MCHC ([3]; Day 45): 29.8 g/dL | MCV ([3]; Day 45): 73 fL | RBC count ([3]; Day 45): 5.9e+06 µL⁻¹ | WBC count ([3]; Day 45): 12000 µL⁻¹ | hemoglobin content ([3]; Day 45): 12.9 g/dL | monocytes ([3]; Day 45): 4.0% | neutrophils ([3]; Day 45): 89% | platelet count ([3]; Day 45): 424 ×100/μL | HCT ([3]; Day 55): 42% | MCH ([3]; Day 55): 21.9 pg | MCHC ([3]; Day 55): 30.0 g/dL | MCV ([3]; Day 55): 73 fL | RBC count ([3]; Day 55): 5.8e+06 µL⁻¹ | WBC count ([3]; Day 55): 8000 µL⁻¹ | hemoglobin content ([3]; Day 55): 12.6 g/dL | monocytes ([3]; Day 55): 4.8% | neutrophils ([3]; Day 55): 98% | platelet count ([3]; Day 55): 399 ×100/μL | HCT ([3]; Day-5): 43% | MCH ([3]; Day-5): 22.2 pg | MCHC ([3]; Day-5): 29.8 g/dL | MCV ([3]; Day-5): 75 fL | RBC count ([3]; Day-5): 5.8e+06 µL⁻¹ | WBC count ([3]; Day-5): 11000 µL⁻¹ | hemoglobin content ([3]; Day-5): 12.8 g/dL | monocytes ([3]; Day-5): 2.3% | neutrophils ([3]; Day-5): 106% | platelet count ([3]; Day-5): 464 ×100/μL | HCT ([3]; Day-14): 40% | MCH ([3]; Day-14): 22.2 pg | MCHC ([3]; Day-14): 31.4 g/dL | MCV ([3]; Day-14): 71 fL | RBC count ([3]; Day-14): 5.7e+06 µL⁻¹ | WBC count ([3]; Day-14): 13000 µL⁻¹ | hemoglobin content ([3]; Day-14): 12.7 g/dL | monocytes ([3]; Day-14): 1.3% | neutrophils ([3]; Day-14): 85% | platelet count ([3]; Day-14): 383 ×100/μL | IFN-γ level ([4]; day 55): 24 pg/mL | IL-1ß level ([4]; day 55): 97 pg/mL | IL-6 level ([4]; day 55): 1 pg/mL | IL-8 level ([4]; day 55): 48 pg/mL | MCP-1 level ([4]; day 55): 264 pg/mL | MIP-1ß level ([4]; day 55): 49 pg/mL | MIP-1α level ([4]; day 55): 12 pg/mL | RANTES level ([4]; day 55): 1193 pg/mL | TNF-α level ([4]; day 55): 16 pg/mL | IFN-γ level [4, 7]: 34 pg/mL | IL-1ß level [4, 7]: 115 pg/mL | IL-6 level [4, 7]: 1 pg/mL | IL-8 level [4, 7]: 106 pg/mL | MCP-1 level [4, 7]: 294 pg/mL | MIP-1ß level [4, 7]: 13 pg/mL | MIP-1α level [4, 7]: 16 pg/mL | RANTES level [4, 7]: 3014 pg/mL | TNF-α level [4, 7]: 6 pg/mL

ISIS 416850: MOE gapmer, nucleobases 1275 to 1318 of SEQ ID NO: 1 (Table 8) (antisense TGCACAGTTTCTGGCAGGCC; MOE gapmer, wing and gap sizes not given here)
Factor 11 mRNA in liver vs PBS control (Factor 11 mRNA): significant reduction of Factor 11 mRNA | ALT ([1]; Day 31): 45 IU/L | AST ([1]; Day 31): 46 IU/L | Bilirubin ([1]; Day 31): 0.26 mg/dL | ALT ([1]; Day 55): 55 IU/L | AST ([1]; Day 55): 57 IU/L | Bilirubin ([1]; Day 55): 0.17 mg/dL | ALT ([1]; Day −5): 42 IU/L | AST ([1]; Day −5): 45 IU/L | Bilirubin ([1]; Day −5): 0.22 mg/dL | ALT ([1]; Day −14): 48 IU/L | AST ([1]; Day −14): 62 IU/L | Bilirubin ([1]; Day −14): 0.26 mg/dL | BUN levels ([2]; Day 31): 21 mg/dL | BUN levels ([2]; Day 55): 26 mg/dL | BUN levels [2, 5]: 23 mg/dL | BUN levels [2, 6]: 24 mg/dL | Urine protein/creatinine ratio [2]: 0.08 | HCT ([3]; Day 17): 42% | MCH ([3]; Day 17): 23.7 pg | MCHC ([3]; Day 17): 31.3 g/dL | MCV ([3]; Day 17): 76 fL | RBC count ([3]; Day 17): 5.6e+06 µL⁻¹ | WBC count ([3]; Day 17): 11000 µL⁻¹ | hemoglobin content ([3]; Day 17): 13.3 g/dL | monocytes ([3]; Day 17): 3.2% | neutrophils ([3]; Day 17): 95% | platelet count ([3]; Day 17): 467 ×100/μL | HCT ([3]; Day 31): 42% | MCH ([3]; Day 31): 23.3 pg | MCHC ([3]; Day 31): 31.0 g/dL | MCV ([3]; Day 31): 75 fL | RBC count ([3]; Day 31): 5.6e+06 µL⁻¹ | WBC count ([3]; Day 31): 12000 µL⁻¹ | hemoglobin content ([3]; Day 31): 13.1 g/dL | monocytes ([3]; Day 31): 3.7% | neutrophils ([3]; Day 31): 100% | platelet count ([3]; Day 31): 507 ×100/μL | HCT ([3]; Day 45): 42% | MCH ([3]; Day 45): 22.7 pg | MCHC ([3]; Day 45): 31.0 g/dL | MCV ([3]; Day 45): 75 fL | RBC count ([3]; Day 45): 5.7e+06 µL⁻¹ | WBC count ([3]; Day 45): 12000 µL⁻¹ | hemoglobin content ([3]; Day 45): 13.1 g/dL | monocytes ([3]; Day 45): 3.8% | neutrophils ([3]; Day 45): 85% | platelet count ([3]; Day 45): 453 ×100/μL | HCT ([3]; Day 55): 40% | MCH ([3]; Day 55): 22.9 pg | MCHC ([3]; Day 55): 30.9 g/dL | MCV ([3]; Day 55): 73 fL | RBC count ([3]; Day 55): 5.6e+06 µL⁻¹ | WBC count ([3]; Day 55): 10000 µL⁻¹ | hemoglobin content ([3]; Day 55): 12.7 g/dL | monocytes ([3]; Day 55): 3.4% | neutrophils ([3]; Day 55): 108% | platelet count ([3]; Day 55): 396 ×100/μL | HCT ([3]; Day-5): 44% | MCH ([3]; Day-5): 23.7 pg | MCHC ([3]; Day-5): 30.7 g/dL | MCV ([3]; Day-5): 77 fL | RBC count ([3]; Day-5): 5.7e+06 µL⁻¹ | WBC count ([3]; Day-5): 13000 µL⁻¹ | hemoglobin content ([3]; Day-5): 13.5 g/dL | monocytes ([3]; Day-5): 2.9% | neutrophils ([3]; Day-5): 109% | platelet count ([3]; Day-5): 517 ×100/μL | HCT ([3]; Day-14): 41% | MCH ([3]; Day-14): 23.7 pg | MCHC ([3]; Day-14): 32.0 g/dL | MCV ([3]; Day-14): 74 fL | RBC count ([3]; Day-14): 5.5e+06 µL⁻¹ | WBC count ([3]; Day-14): 12000 µL⁻¹ | hemoglobin content ([3]; Day-14): 13.0 g/dL | monocytes ([3]; Day-14): 1.9% | neutrophils ([3]; Day-14): 88% | platelet count ([3]; Day-14): 462 ×100/μL | IFN-γ level ([4]; day 55): 19 pg/mL | IL-1ß level ([4]; day 55): 106 pg/mL | IL-6 level ([4]; day 55): 1 pg/mL | IL-8 level ([4]; day 55): 620 pg/mL | MCP-1 level ([4]; day 55): 887 pg/mL | MIP-1ß level ([4]; day 55): 50 pg/mL | MIP-1α level ([4]; day 55): 17 pg/mL | RANTES level ([4]; day 55): 27503 pg/mL | TNF-α level ([4]; day 55): 16 pg/mL | IFN-γ level [4, 7]: 115 pg/mL | IL-1ß level [4, 7]: 215 pg/mL | IL-6 level [4, 7]: 1 pg/mL | IL-8 level [4, 7]: 45 pg/mL | MCP-1 level [4, 7]: 434 pg/mL | MIP-1ß level [4, 7]: 31 pg/mL | MIP-1α level [4, 7]: 14 pg/mL | RANTES level [4, 7]: 4560 pg/mL | TNF-α level [4, 7]: 4 pg/mL
